The values that follow come from patent US20170304388A1, “NEW INDICATION OF CARDIOVASCULAR DRUGS FOR PREPARATION OF CANCER INHIBITION PHARMACEUTICAL COMPOSITION” (LAUNX BIOMEDICAL CO., LTD., priority 2014, published 2017).

Holding throughout (assay type): cell-based
Data set [1] has as its system A375 (Amelanotic Melanoma). Put plainly: Cell viability analysis (WST-1), A375. The conditions noted are these: WST-1, OD450 nm, lower viability = better inhibition; for viability at 10 µM: Homo sapiens, A-375, 72 h, Table 3, drug 10 μM, read-out: survival rate (viability) of cancer cells, A375.
In data set [2] the test system is HCT116 (Colorectal Carcinoma). Nature of the data set: Cell viability analysis (WST-1), HCT116. The following applies: WST-1, OD450 nm; for viability at 10 µM: Homo sapiens, HCT-116, 72 h, Table 3, drug 10 μM, read-out: survival rate (viability) of cancer cells, HCT116 (WT).
For data set [3], the system named is HeLa (Cervix Adenocarcinoma). Put plainly: Cell viability analysis (WST-1), HeLa. The conditions noted are these: Homo sapiens, HeLa, 72 h, Table 3, drug 10 μM, WST-1, OD450 nm, read-out: survival rate (viability) of cancer cells, HeLa.
The subject of data set [4] is AGS (Gastric Adenocarcinoma). Nature of the data set: Cell viability analysis (WST-1), AGS. The following applies: WST-1, OD450 nm; for viability at 10 µM: 72 h, Table 3, drug 10 μM, read-out: survival rate (viability) of cancer cells, AGS. Background: Tetrazolium dyes change colour on reduction, which living cells bring about.
Data set [5] concerns H1650 (Lung Adenocarcinoma). Put plainly: Cell viability analysis (WST-1), H1650. The conditions noted are these: WST-1, OD450 nm; for viability at 10 µM: Homo sapiens, NCI-H1650, 72 h, Table 3, drug 10 μM, read-out: survival rate (viability) of cancer cells, H1650.
For data set [6], the system named is MKN-45 (Gastric Adenocarcinoma). Put plainly: Cell viability analysis (WST-1), MKN-45. The following applies: WST-1, OD450 nm; for viability at 10 µM: Homo sapiens, MKN-45, 72 h, Table 3, drug 10 μM, read-out: survival rate (viability) of cancer cells, MKN-45.
Data set [7] concerns TSGH-8301 (Urinary Bladder Carcinoma). Nature of the data set: Cell viability analysis (WST-1), TSGH-8301. The following applies: WST-1, OD450 nm; for viability at 10 µM: 72 h, Table 3, drug 10 μM, read-out: survival rate (viability) of cancer cells, TSGH.
Data set [8] concerns A549 (Lung Adenocarcinoma). Put plainly: Cell viability analysis (WST-1), A549. The following applies: WST-1, OD450 nm; for viability at 10 µM: Homo sapiens, A549, 72 h, Table 3, drug 10 μM, read-out: survival rate (viability) of cancer cells, A549.
The test system of data set [9] is MCF7 (Mammary Gland, Adenocarcinoma). Put plainly: Cell viability analysis (WST-1), MCF7. The conditions noted are these: Homo sapiens, MCF7, 72 h, Table 3, drug 10 μM, WST-1, OD450 nm, read-out: survival rate (viability) of cancer cells, MCF7.
Data set [10] deals with PC3 (Prostate Adenocarcinoma). Nature of the data set: Cell viability analysis (WST-1), PC3. The conditions noted are these: 72 h, Table 3, drug 10 μM, WST-1, OD450 nm, read-out: survival rate (viability) of cancer cells, PC3.
Data set [11] concerns LoVo (Colorectal Adenocarcinoma). Nature of the data set: Cell viability analysis (WST-1), LoVo. The following applies: Homo sapiens, LoVo, 72 h, Table 3, drug 10 μM, WST-1, OD450 nm, read-out: survival rate (viability) of cancer cells, LoVo.
The test system of data set [12] is HL-60 (Acute Promyelocytic Leukemia). Put plainly: Cell viability analysis (WST-1), HL-60. The conditions noted are these: Table 3, drug 10 μM, 72 hours, WST-1, OD450 nm; for viability at 10 µM: Homo sapiens, HL-60, read-out: survival rate (viability) of cancer cells, HL-60.
Another data set deals with cancer cell lines. Nature of the data set: Growth inhibitory effects on the panel of cancer cell lines. The following applies: drug 10 μM, 72 hours; for Numbers of inhibitory effect on cancer cell line: count of cancer cell lines inhibited; for inhibition effect on different cancer cell lines (in words): WST-1.
For data set [13], the system named is HepG2 (Hepatocellular Carcinoma). Put plainly: Cell viability analysis (WST-1), HepG2. The following applies: Homo sapiens, HepG2, 72 h, Table 3, drug 10 μM, WST-1, OD450 nm, read-out: survival rate (viability) of cancer cells, HepG2.

Usually viability stands for a read-out of living cells in per cent, often relative to untreated cells.

From the text for cancer cell lines: Subculture the different types of cancer cells.
For cell viability analysis, the cardiovascular drugs include peripheral vasodilator reaming enhancer, angiotensin converting agent inhibitor, hypotension and shock therapeutic agent, diuretic, antiarrhythmic agent, antiarralciton drug, antihypertensive agent, anticoagulant thrombolytic agent, cardiac tonic, intravenous (hemorrhoids) therapeutic agent, are used to test the inhibition effect of cancer cell.

As to `Cc1cccc(Nc2ccccc2C(=O)O)c1C` [Mefenamic acid], the viability at 10 µM was 78.7% in data set [1]; 85.9% in data set [2]; 76.1% in data set [3]; 71.1% in data set [4]; 73.9% in data set [5]; 115% in data set [6]. The viability at 10 µM in [7] is 118%; in [8], 116%; in data set [9], 95.3%; in data set [10], 103%; in data set [11], 83.3%; in [12], 113%. Also, the “Numbers of inhibitory effect on cancer cell line” value (from here on “Numbers of inhibitory effect”) in the data set on cancer cell lines is on record as 0. Besides, the “inhibition effect on different cancer cell lines (in words)” value in the data set on cancer cell lines is recorded as “significant inhibition effect”.
On to `CC(C)OC(=O)C(C)(C)Oc1ccc(C(=O)c2ccc(Cl)cc2)cc1` [Fenofibrate (Tricor, Trilipix), Fenofibrate], for which the viability at 10 µM came to 159% in data set [1]; 98.9% in data set [2]; 104% in [13]; 98.3% in [3]; 84.1% in data set [4]; 122% in data set [5]. Further, the viability at 10 µM in data set [6] was determined as 83.1%; in data set [7] it was 103%; in [9] it was 78.1%; in [10], 105%; in [12], 77.6%.
Take `Cc1[nH]c(=O)c(C#N)cc1-c1ccncc1` [Milrinone (Primacor), Milrinone]: the viability at 10 µM came out at 104% in data set [2]; 98.5% in data set [13]; 99% in data set [3]; 130% in data set [4]; 86.2% in [5]; 92.9% in [6]. Further, the viability at 10 µM is 90.9% in data set [8]; 98.5% in data set [9]; 92% in [10]; 90.5% in data set [11]; 112% in data set [12]. In the data set with cancer cell lines, the “Numbers of inhibitory effect” value is given as 0. The “inhibition effect on different cancer cell lines (in words)” value in the data set on cancer cell lines was “significant inhibition effect”.
For the compound Gabexate mesylate, the “survival rate (viability) of cancer cells, A375” value in data set [1] (Table 3, drug 10 μM, 72 hours) came out at 77.9. In data set [2] (Table 3, drug 10 μM, 72 hours), the “survival rate (viability) of cancer cells, HCT116 (WT)” value was determined as 114.9. Further, the “survival rate (viability) of cancer cells, AGS” value in data set [4] (Table 3, drug 10 μM, 72 hours) is on record as 75.0. In addition, in data set [5] (Table 3, drug 10 μM, 72 hours), the “survival rate (viability) of cancer cells, H1650” value is 69.8. The “survival rate (viability) of cancer cells, MKN-45” value in data set [6] (Table 3, drug 10 μM, 72 hours) stood at 81.1. For the same compound, the “survival rate (viability) of cancer cells, TSGH” value in data set [7] (Table 3, drug 10 μM, 72 hours) was determined as 70.9. Besides, the “survival rate (viability) of cancer cells, A549” value in data set [8] (Table 3, drug 10 μM, 72 hours) stood at 77.3. In addition, the “survival rate (viability) of cancer cells, HL-60” value in [12] worked out at 117.6. In the data set with cancer cell lines, the “Numbers of inhibitory effect” value is listed as 0 and the “inhibition effect on different cancer cell lines (in words)” value is reported as “significant inhibition effect”.
For the compound `O=C(O)/C=C/c1ccc(Cn2ccnc2)cc1` [Ozagrel], the viability at 10 µM in data set [1] was determined as 74.7%; in [2], 102%; in [13], 91.2%; in data set [3], 77.7%; in [4] it was 98.5%; in data set [5], 80.6%. Further, the viability at 10 µM in [6] is 93.9%; in data set [7] it was 69.4%; in [8], 77.7%; in data set [9], 102%; in [11] it was 80.6%; in data set [12] it was 118%. The “Numbers of inhibitory effect” value with cancer cell lines is recorded as 0. Besides, the “inhibition effect on different cancer cell lines (in words)” value in the data set with cancer cell lines is recorded as “significant inhibition effect”.
Turning to `NCCCCCC(=O)O` [Aminocaproic acid (Amicar), Aminocaproic acid], the viability at 10 µM is 123% in data set [1]; 114% in data set [2]; 90.4% in data set [3]; 64.8% in [4]; 65.4% in data set [5]; 80.2% in data set [6]. For the same compound, the viability at 10 µM came to 71.4% in data set [7]; 70.3% in data set [8]; 69.2% in data set [9]; 79.6% in data set [10]; 91.2% in data set [11]; 93% in data set [12]. In the data set with cancer cell lines, the “Numbers of inhibitory effect” value was found to be 0.
